Laboratory results reported in US20230127944A1, “BROAD-SPECTRUM CARBAPENEMS” (priority 2019, published 2023).
Values after ≈ are worked out from the molar mass of the structure shown.

Experiments:
Assay type in all cases: cell-based
[1] = tested on: S. aureus ATCC 33591 (methicillin-resistant); assay: broth microdilution MIC assay, S. aureus 33591; conditions: Staphylococcus aureus, ATCC33591; S. aureus 33591, methicillin-resistant; read-out: MIC, S. aureus 33591
Description: (§1) To determine the ability of test compounds to inhibit the growth of bacterial strains, classic cell-based broth microdilution MIC assays were employed. MIC assays are performed according to CLSI methods except where otherwise noted (CLSI, 2011 and CLSI, 2009). The reference strains S. aureus ATCC 29213 (methicillin sensitive), S. aureus ATCC 33591 (methicillin-resistant), E. coli ATCC 25922 (wild-type/QC strain), P. aeruginosa ATCC 27853 (wild-type/QC strain), and the clinical isolate P. aeruginosa PA 8 were used to determine the ability of the exemplary carbapenem compounds to inhibit bacterial growth. An expanded panel of methicillin resistance S. aureus (MRSA) and Pseudomonas was also used to determine the ability of exemplary carbapenem compounds to inhibit bacterial growth across a broader representation of those species. To determine activity in MRSA and in addition to S. aureus ATCC 33591, S. aureus USA 300 and USA 600, some of the most common clones found to cause human infection, were also used. To further gauge the impact on the carbapenem compounds due to various resistance mechanisms in Pseudomonas, the following strains were included: P. aeruginosa 35151 (hyper-permeable strain), P. aeruginosa ΔmexAB-OprM (an efflux pump knockout), and P. aeruginosa Paβ-173 (a clinical isolate of reduced carbapenem susceptibility). Briefly, cryo-preserved bacterial cultures of clinical strains are streaked for isolation on appropriate agar medium, in this case Mueller Hinton II agar. Following incubation to allow formation of colonies, these plates are sealed with parafilm and stored refrigerated for up to two weeks. For preparation of assay inocula and to ensure low variability, at least 5 colonies are picked from the agar plates with an inoculating loop and aseptically transferred to a culture tube containing 3 mL of Mueller-Hinton Broth (supplemented with divalent cations to required levels based on Manufacturers' specification). The broth culture is grown for 3-5 hours at 37° C. with shaking at 200 rpm. Meanwhile, 2-fold serial dilutions of test compounds are conducted in a 96 well plate with a final volume of 75 μL per well at 2-fold the final desired concentration. After the dilution plates are set up the growing cultures are then diluted in a cuvette containing MH II broth and the optical density is measured at 600 nm. Inocula are diluted such that 75 μL of this culture in Mueller-Hinton Broth results in a starting bacterial concentration of 5×10^5 CFU/mL when added to the dilution plates. The plates are incubated 16-20 hours at 37° C. The MIC is read visually as the lowest concentration well with no bacterial growth.

[2] = tested on: S. aureus USA 300; assay: broth microdilution MIC assay, S. aureus USA300; conditions: Staphylococcus aureus; S. aureus USA300 (MRSA); read-out: MIC, S. aureus USA300
Description: as §1

[3] = tested on: S. aureus USA 600; assay: broth microdilution MIC assay, S. aureus USA600; conditions: Staphylococcus aureus; S. aureus USA600 (MRSA); read-out: MIC, S. aureus USA600
Description: as §1

[4] = tested on: E. coli ATCC 25922 (wild-type/QC strain); assay: broth microdilution MIC assay, E. coli 25922; conditions: Escherichia coli, ATCC25922; read-out: MIC, E. coli 25922
Description: as §1

[5] = tested on: P. aeruginosa ATCC 27853 (wild-type/QC strain); assay: broth microdilution MIC assay, P. aeruginosa 27853; conditions: Pseudomonas aeruginosa, ATCC27853; read-out: MIC, P. aeruginosa 27853
Description: as §1

[6] = tested on: P. aeruginosa 35151 (hyper-permeable strain); assay: broth microdilution MIC assay, P. aeruginosa 35151; conditions: Pseudomonas aeruginosa, read-out: MIC, P. aeruginosa 35151
Description: as §1

[7] = tested on: P. aeruginosa ΔmexAB-OprM (an efflux pump knockout); assay: broth microdilution MIC assay, P. aeruginosa ΔmexAB-OprM; conditions: Pseudomonas aeruginosa, read-out: MIC, P. aeruginosa ΔmexAB-OprM
Description: as §1

[8] = tested on: P. aeruginosa Paeβ-17; assay: broth microdilution MIC assay, P. aeruginosa Paeβ-17; conditions: Pseudomonas aeruginosa, read-out: MIC, P. aeruginosa Paeβ-17
Description: as §1

Row | Structure (SMILES) | MIC [1] [µg/mL] | MIC [2] [µg/mL] | MIC [3] [µg/mL] | MIC [4] [µg/mL] | MIC [5] [µg/mL] | MIC [6] [µg/mL] | MIC [7] [µg/mL] | MIC [8] [µg/mL]
1 | C[C@@H](O)[C@H]1C(=O)N2C(C(=O)O)=C(S[C@@H]3CCN([C@H]4CC[C@H](NC(=N)N)CC4)C3)[C@H](C)[C@H]12 [Example 27, (4R,5S,6S)-3-(((R)-1-((1R,4R)-4-guanidinocyclohexyl)pyrrolidin-3-yl)thio)-6-((R)-1-hydroxyethyl)-4-methyl-7-oxo-1-azabicyclo[3.2.0]hept-2-ene-2-carboxylic acid] | 1 to 4 (≈ 2.21 to 8.86 µM) | 1 to 4 (≈ 2.21 to 8.86 µM) | 1 to 4 (≈ 2.21 to 8.86 µM) | < 1 | 8 to 32 (≈ 17.7 to 70.9 µM) | < 1 | 1 to 4 (≈ 2.21 to 8.86 µM) | 8 to 32 (≈ 17.7 to 70.9 µM)
2 | C[C@@H](O)[C@H]1C(=O)N2C(C(=O)O)=C(SC3CN(Cc4ccc(N)nc4)C3)[C@H](C)[C@H]12 [Example 23, (4R,5S,6S)-3-((1-((6-aminopyridin-3-yl)methyl)azetidin-3-yl)thio)-6-((R)-1-hydroxyethyl)-4-methyl-7-oxo-1-azabicyclo[3.2.0]hept-2-ene-2-carboxylic acid] | 8 to 32 (≈ 19.8 to 79.1 µM) | 1 to 4 (≈ 2.47 to 9.89 µM) | 1 to 4 (≈ 2.47 to 9.89 µM) | < 1 | 8 to 32 (≈ 19.8 to 79.1 µM) | < 1 | 1 to 4 (≈ 2.47 to 9.89 µM) | > 32
3 | C[C@@H](O)[C@H]1C(=O)N2C(C(=O)O)=C(S[C@@H]3CC[C@H](NC4CCNCC4)C3)[C@H](C)[C@H]12 [Example 50, (4R,5S,6S)-6-((R)-1-hydroxyethyl)-4-methyl-7-oxo-3-(((1R,3S)-3-(piperidin-4-ylamino)cyclopentyl)thio)-1-azabicyclo[3.2.0]hept-2-ene-2-carboxylic acid] | 1 to 4 (≈ 2.44 to 9.77 µM) | 1 to 4 (≈ 2.44 to 9.77 µM) | 1 to 4 (≈ 2.44 to 9.77 µM) | < 1 | 8 to 32 (≈ 19.5 to 78.1 µM) | < 1 | 1 to 4 (≈ 2.44 to 9.77 µM) | 8 to 32 (≈ 19.5 to 78.1 µM)
4 | C[C@@H](O)[C@H]1C(=O)N2C(C(=O)O)=C(S[C@@H]3CCN([C@H]4CC[C@@H](CNC(=N)N)CC4)C3)[C@H](C)[C@H]12 [Example 63, (4R,5S,6S)-3-(((R)-1-((1S,4S)-4-(guanidinomethyl)cyclohexyl)pyrrolidin-3-yl)thio)-6-((R)-1-hydroxyethyl)-4-methyl-7-oxo-1-azabicyclo[3.2.0]hept-2-ene-2-carboxylic acid] | 1 to 4 (≈ 2.15 to 8.59 µM) | 1 to 4 (≈ 2.15 to 8.59 µM) | 1 to 4 (≈ 2.15 to 8.59 µM) | < 1 | 1 to 4 (≈ 2.15 to 8.59 µM) | < 1 | 1 to 4 (≈ 2.15 to 8.59 µM) | 8 to 32 (≈ 17.2 to 68.7 µM)
5 | C[C@@H](O)[C@H]1C(=O)N2C(C(=O)O)=C(SC3CN(C[C@H]4CCCN4)C3)[C@H](C)[C@H]12 [Example 32, (4R,5S,6S)-6-((R)-1-hydroxyethyl)-4-methyl-7-oxo-3-((1-(((R)-pyrrolidin-2-yl)methyl)azetidin-3-yl)thio)-1-azabicyclo[3.2.0]hept-2-ene-2-carboxylic acid] | 8 to 32 (≈ 21 to 83.9 µM) | 1 to 4 (≈ 2.62 to 10.5 µM) | 1 to 4 (≈ 2.62 to 10.5 µM) | < 1 | 8 to 32 (≈ 21 to 83.9 µM) | < 1 | 1 to 4 (≈ 2.62 to 10.5 µM) | 8 to 32 (≈ 21 to 83.9 µM)
6 | C[C@@H](O)[C@H]1C(=O)N2C(C(=O)O)=C(SC3CN([C@@H]4CC[C@@H](NC(=N)N)C4)C3)[C@H](C)[C@H]12 [Example 10, (4R,5S,6S)-3-((1-((1R,3R)-3-guanidinocyclopentyl)azetidin-3-yl)thio)-6-((R)-1-hydroxyethyl)-4-methyl-7-oxo-1-azabicyclo[3.2.0]hept-2-ene-2-carboxylic acid] | 1 to 4 (≈ 2.36 to 9.44 µM) | 1 to 4 (≈ 2.36 to 9.44 µM) | 1 to 4 (≈ 2.36 to 9.44 µM) | < 1 | 8 to 32 (≈ 18.9 to 75.6 µM) | < 1 | 1 to 4 (≈ 2.36 to 9.44 µM) | 8 to 32 (≈ 18.9 to 75.6 µM)
7 | C[C@@H](O)[C@H]1C(=O)N2C(C(=O)O)=C(S[C@@H]3CCN(C[C@H]4CC[C@H](CNC(=N)N)CC4)C3)[C@H](C)[C@H]12 [Example 41, (4R,5S,6S)-3-(((R)-1-(((1R,4R)-4-(guanidinomethyl)cyclohexyl)methyl)pyrrolidin-3-yl)thio)-6-((R)-1-hydroxyethyl)-4-methyl-7-oxo-1-azabicyclo[3.2.0]hept-2-ene-2-carboxylic acid] | 1 to 4 (≈ 2.08 to 8.34 µM) | 1 to 4 (≈ 2.08 to 8.34 µM) | 1 to 4 (≈ 2.08 to 8.34 µM) | < 1 | 1 to 4 (≈ 2.08 to 8.34 µM) | < 1 | 1 to 4 (≈ 2.08 to 8.34 µM) | 8 to 32 (≈ 16.7 to 66.7 µM)
8 | C[C@@H](O)[C@H]1C(=O)N2C(C(=O)O)=C(S[C@@H]3CCN([C@@H]4CC[C@@H](NC(=N)N)C4)C3)[C@H](C)[C@H]12 [Example 30, (4R,5S,6S)-3-(((R)-1-((1R,3R)-3-guanidinocyclopentyl)pyrrolidin-3-yl)thio)-6-((R)-1-hydroxyethyl)-4-methyl-7-oxo-1-azabicyclo[3.2.0]hept-2-ene-2-carboxylic acid] | 8 to 32 (≈ 18.3 to 73.1 µM) | 1 to 4 (≈ 2.29 to 9.14 µM) | 1 to 4 (≈ 2.29 to 9.14 µM) | < 1 | 8 to 32 (≈ 18.3 to 73.1 µM) | 1 to 4 (≈ 2.29 to 9.14 µM) | 1 to 4 (≈ 2.29 to 9.14 µM) | > 32
9 | C[C@@H](O)[C@H]1C(=O)N2C(C(=O)O)=C(S[C@@H]3CCN(C[C@H]4CC[C@@H](NC(=N)N)CC4)C3)[C@H](C)[C@H]12 [Example 33, (4R,5S,6S)-3-(((R)-1-(((1S,4S)-4-guanidinocyclohexyl)methyl)pyrrolidin-3-yl)thio)-6-((R)-1-hydroxyethyl)-4-methyl-7-oxo-1-azabicyclo[3.2.0]hept-2-ene-2-carboxylic acid] | 1 to 4 (≈ 2.15 to 8.59 µM) | < 1 | 1 to 4 (≈ 2.15 to 8.59 µM) | < 1 | 1 to 4 (≈ 2.15 to 8.59 µM) | < 1 | 1 to 4 (≈ 2.15 to 8.59 µM) | 8 to 32 (≈ 17.2 to 68.7 µM)
10 | C[C@@H](O)[C@H]1C(=O)N2C(C(=O)O)=C(S[C@@H]3CCN(C[C@H]4CC[C@@H](CN)CC4)C3)[C@H](C)[C@H]12 [Example 45, (4R,5S,6S)-3-(((R)-1-(((1S,4S)-4-(aminomethyl)cyclohexyl)methyl)pyrrolidin-3-yl)thio)-6-((R)-1-hydroxyethyl)-4-methyl-7-oxo-1-azabicyclo[3.2.0]hept-2-ene-2-carboxylic acid] | 1 to 4 (≈ 2.29 to 9.14 µM) | 1 to 4 (≈ 2.29 to 9.14 µM) | 1 to 4 (≈ 2.29 to 9.14 µM) | < 1 | 1 to 4 (≈ 2.29 to 9.14 µM) | < 1 | 1 to 4 (≈ 2.29 to 9.14 µM) | 8 to 32 (≈ 18.3 to 73.1 µM)
11 | C[C@@H](O)[C@H]1C(=O)N2C(C(=O)O)=C(S[C@@H]3CCN(C[C@H]4CC[C@@H](N)CC4)C3)[C@H](C)[C@H]12 [Example 72, (4R,5S,6S)-3-(((R)-1-(((1S,4S)-4-aminocyclohexyl)methyl)pyrrolidin-3-yl)thio)-6-((R)-1-hydroxyethyl)-4-methyl-7-oxo-1-azabicyclo[3.2.0]hept-2-ene-2-carboxylic acid] | 8 to 32 (≈ 18.9 to 75.5 µM) | 1 to 4 (≈ 2.36 to 9.44 µM) | 1 to 4 (≈ 2.36 to 9.44 µM) | < 1 | 1 to 4 (≈ 2.36 to 9.44 µM) | < 1 | 8 to 32 (≈ 18.9 to 75.5 µM) | 1 to 4 (≈ 2.36 to 9.44 µM)
12 | C[C@@H](O)[C@H]1C(=O)N2C(C(=O)O)=C(SC3CN(C[C@H]4CCN(C(=N)N)C4)C3)[C@H](C)[C@H]12 [Example 46, (4R,5S,6S)-3-((1-(((R)-1-carbamimidoylpyrrolidin-3-yl)methyl)azetidin-3-yl)thio)-6-((R)-1-hydroxyethyl)-4-methyl-7-oxo-1-azabicyclo[3.2.0]hept-2-ene-2-carboxylic acid] | 1 to 4 (≈ 2.36 to 9.44 µM) | 1 to 4 (≈ 2.36 to 9.44 µM) | 1 to 4 (≈ 2.36 to 9.44 µM) | < 1 | 1 to 4 (≈ 2.36 to 9.44 µM) | < 1 | 1 to 4 (≈ 2.36 to 9.44 µM) | 8 to 32 (≈ 18.9 to 75.6 µM)
